Experimental data from the CheMixHub viscosity set.

Test: xn = mol fraction of the nth substance listed

Clc1cccc2ccccc12 + Cc1ccccc1
viscosity [mPa·s], 101.33 kPa
Conditions	x1 = 0.0995	x1 = 0.1995	x1 = 0.3037	x1 = 0.3973	x1 = 0.4962	x1 = 0.597	x1 = 0.6945	x1 = 0.7972	x1 = 0.8918
298.15 K	0.596	0.711	0.838	0.979	1.16	1.357	1.614	1.941	2.321
303.15 K	0.561	0.665	0.788	0.91	1.074	1.249	1.484	1.764	2.091
308.15 K	0.529	0.626	0.727	0.849	0.995	1.153	1.361	1.616	1.88

Clc1ccccc1 + Cc1ccccc1C
101 kPa
Conditions	viscosity [mPa·s]
293.15 K, x1 = 0.1217	0.755
293.15 K, x1 = 0.2237	0.76
293.15 K, x1 = 0.4305	0.759
293.15 K, x1 = 0.5325	0.753
293.15 K, x1 = 0.6305	0.76
293.15 K, x1 = 0.7288	0.755
293.15 K, x1 = 0.8295	0.756
293.15 K, x1 = 0.9051	0.75
298.15 K, x1 = 0.1005	0.712
298.15 K, x1 = 0.2307	0.708
298.15 K, x1 = 0.3108	0.704
298.15 K, x1 = 0.4337	0.706
298.15 K, x1 = 0.5454	0.705
298.15 K, x1 = 0.6079	0.705
298.15 K, x1 = 0.7762	0.706
298.15 K, x1 = 0.8807	0.705
303.15 K, x1 = 0.1214	0.66
303.15 K, x1 = 0.2389	0.666
303.15 K, x1 = 0.3117	0.653
303.15 K, x1 = 0.4128	0.657
303.15 K, x1 = 0.5674	0.653
303.15 K, x1 = 0.6882	0.661
303.15 K, x1 = 0.7891	0.661
303.15 K, x1 = 0.9156	0.66

COCCOCCOCCOCCOC + ClC(Cl)(Cl)Cl
298.15 K, 101 kPa
Conditions	viscosity [mPa·s]
x1 = 0.0127	0.966
x1 = 0.0282	1.01
x1 = 0.0629	1.122
x1 = 0.1168	1.311
x1 = 0.1932	1.562
x1 = 0.2437	1.723
x1 = 0.2943	1.888
x1 = 0.3592	2.081
x1 = 0.3669	2.102
x1 = 0.4164	2.242
x1 = 0.4414	2.319
x1 = 0.511	2.487
x1 = 0.5854	2.656
x1 = 0.6215	2.732
x1 = 0.6944	2.874
x1 = 0.7318	2.94
x1 = 0.7968	3.067
x1 = 0.8566	3.16
x2 = 0.0114	3.287

CCCCn1cc[n+](C)c1.F[P-](F)(F)(F)(F)F + ClC(Cl)Cl
Conditions	viscosity [mPa·s]
298.15 K, 101 kPa, x2 = 0.0857	195

COCCOCCOCCOCCOC + ClC(Cl)Cl
298.15 K, 101 kPa
Conditions	viscosity [mPa·s]
x1 = 0.0305	0.671
x1 = 0.06	0.81
x1 = 0.0813	0.921
x1 = 0.118	1.124
x1 = 0.1876	1.492
x1 = 0.2354	1.766
x1 = 0.2657	1.91
x1 = 0.2957	2.04
x1 = 0.35	2.276
x1 = 0.4029	2.413
x1 = 0.4429	2.521
x1 = 0.5093	2.676
x1 = 0.5445	2.745
x1 = 0.6146	2.883
x1 = 0.6452	2.925
x1 = 0.7142	3.035
x1 = 0.7593	3.083
x1 = 0.8142	3.141
x1 = 0.88	3.227
x1 = 0.9225	3.252
